Test system: NMNAT2
Assay: NMNAT2-Hibit nano-luciferase activity in stably transfected U87MG cells, various concentrations, 24 hours
Assay type: cell-based
Conditions: U87MG cells stably transfected with NMNAT2-Hibit luc plasmid
Description: Selected compounds were tested in vitro. U87MG cells were stably transfected with NMNAT2-Hibit luc plasmid. Cells were treated with a test compound at various concentrations for 24 hours. Cells were then collected and assayed for nano-luciferase activity.

| SMILES | E: compound efficacy for NMNAT2 activation (concentration giving >25% increase in NMNAT2 luciferase activity) |
| --- | --- |
| O=C1CC(c2cn(Cc3cccc(F)c3)c3ccccc23)CCN1CCOc1ccc(F)cc1 (stereo not shown) [BC20340] | + (“+” >25% increase in NMNAT2 luciferase activity at >25 μM.) |
| O=C(CCCc1cn(Cc2ccccc2F)c2ccccc12)NCc1ccncc1 [BC20133] | ++ (“++” >25% increase in NMNAT2 luciferase activity at >1 μM ≤25 μM.) |
| Cc1ccc(Cn2c3c(c4ccccc42)C(C(=O)NCC2CCCO2)CCC3)cc1 (stereo not shown) [BC20384] | + (“+” >25% increase in NMNAT2 luciferase activity at >25 μM.) |
| Cc1c(C)n(Cc2ccccc2F)c2ccc(C(=O)NCc3ccccc3F)cc12 [BC20103] | +++ (“+++” >25% increase in NMNAT2 luciferase activity at ≤1 μM.) |
| COc1cccc(CNC(=O)c2ccc3c(c2)c(C)c(C)n3Cc2ccccc2F)c1 [BC20196] | + (“+” >25% increase in NMNAT2 luciferase activity at >25 μM.) |
| O=C(NCc1cccc(F)c1)C1CCc2c(c3ccccc3n2Cc2cccc(F)c2)C1 (stereo not shown) [BC20222] | + (“+” >25% increase in NMNAT2 luciferase activity at >25 μM.) |
| Cc1ccccc1Cn1c(C)c(C)c2cc(C(=O)O)ccc21 [BC20306] | + (“+” >25% increase in NMNAT2 luciferase activity at >25 μM.) |
| Cc1cccc(NC(=O)N2CCc3c(c4ccccc4n3Cc3cccc(F)c3)C2)c1C [BC20312] | + (“+” >25% increase in NMNAT2 luciferase activity at >25 μM.) |
| Cc1ccc(C)c(Cn2c(C(F)F)c(CCC(=O)N3CCN(C(=O)c4ccco4)CC3)c3ccccc32)c1 [BC20400] | ++ (“++” >25% increase in NMNAT2 luciferase activity at >1 μM ≤25 μM.) |
| O=C(c1ccco1)N1CCN(C(=O)C2CCc3c(c4ccccc4n3Cc3cccc(F)c3)C2)CC1 (stereo not shown) [BC20257] | + (“+” >25% increase in NMNAT2 luciferase activity at >25 μM.) |
| O=C1c2cccc3c2c(cn3Cc2cccc(F)c2)CCN1Cc1ccccc1F [BC20274] | + (“+” >25% increase in NMNAT2 luciferase activity at >25 μM.) |
| Cc1cccc(Cn2cc(CCCC(=O)NCCc3ccccc3)c3ccccc32)c1 [BC20172] | ++ (“++” >25% increase in NMNAT2 luciferase activity at >1 μM ≤25 μM.) |
| O=C(C1CCc2c(c3ccccc3n2Cc2cccc(F)c2)C1)N1CCc2occc2C1 (stereo not shown) [BC20260] | ++ (“++” >25% increase in NMNAT2 luciferase activity at >1 μM ≤25 μM.) |
| Cc1cccc(NC(=O)N2CCc3c(c4ccccc4n3Cc3ccncc3)C2)c1C [BC20336] | + (“+” >25% increase in NMNAT2 luciferase activity at >25 μM.) |
| Cc1c(C)n(Cc2cccc(F)c2)c2ccc(C(=O)N(CCCN3CCOCC3)Cc3ccco3)cc12 [BC20264] | ++ (“++” >25% increase in NMNAT2 luciferase activity at >1 μM ≤25 μM.) |
| Cc1ccc(C)c(Cn2cc3c4c(cccc42)C(=O)N(CCc2ccccc2C)CC3)c1 [BC20273] | + (“+” >25% increase in NMNAT2 luciferase activity at >25 μM.) |
| Cc1ccc(C)c(Cn2c3c(c4ccccc42)CC(C(=O)NCCc2ccccc2)CC3)c1 (stereo not shown) [BC20218] | + (“+” >25% increase in NMNAT2 luciferase activity at >25 μM.) |

| SMILES | E: compound efficacy for NMNAT2 activation (concentration giving >25% increase in NMNAT2 luciferase activity) |
| --- | --- |
| Cc1ccc(C)c(Cn2cc([C@H]3C[C@@H]3C(=O)NCc3cccnc3)c3ccccc32)c1 (racemic) [BC20351] | + (“+” >25% increase in NMNAT2 luciferase activity at >25 μM.) |
| Cc1ccc(C)c(Cn2c(C(F)F)c(C3CC(=O)Nc4cccc(C)c43)c3ccccc32)c1 (stereo not shown) [BC20405] | ++ (“++” >25% increase in NMNAT2 luciferase activity at >1 μM ≤25 μM.) |
| COc1cccc(CNC(=O)C2CCc3c(c4ccccc4n3Cc3cc(C)ccc3C)C2)c1 (stereo not shown) [BC20188] | ++ (“++” >25% increase in NMNAT2 luciferase activity at >1 μM ≤25 μM.) |
| Cc1cccc(CNC(=O)c2ccc3c(c2)c(C)c(C)n3Cc2cccc(F)c2)c1 [BC20114] | ++ (“++” >25% increase in NMNAT2 luciferase activity at >1 μM ≤25 μM.) |
| COC(=O)c1ccc2c(c1)c(C)c(C)n2Cc1ccccc1C [BC20305] | + (“+” >25% increase in NMNAT2 luciferase activity at >25 μM.) |
| O=C(C1CCCc2c1c1ccccc1n2Cc1cccc(F)c1)N(CCCN1CCOCC1)Cc1ccco1 (stereo not shown) [BC20382] | ++ (“++” >25% increase in NMNAT2 luciferase activity at >1 μM ≤25 μM.) |
| O=C(NCC1CCCO1)C1CCCc2c1c1ccccc1n2Cc1cccc(F)c1 (stereo not shown) [BC20370] | + (“+” >25% increase in NMNAT2 luciferase activity at >25 μM.) |
| O=C(NCc1cccnc1)C1CCc2c(c3ccccc3n2Cc2cccc(F)c2)C1 (stereo not shown) [BC20258] | ++ (“++” >25% increase in NMNAT2 luciferase activity at >1 μM ≤25 μM.) |
| Cc1cccc(CNC(=O)CCCc2cn(Cc3ccccc3F)c3ccccc23)c1 [BC20126] | ++ (“++” >25% increase in NMNAT2 luciferase activity at >1 μM ≤25 μM.) |
| Cc1ccc(C)c(Cn2c(C(F)F)c(CCC(=O)NCc3ccncc3)c3ccccc32)c1 [BC20404] | ++ (“++” >25% increase in NMNAT2 luciferase activity at >1 μM ≤25 μM.) |
| Cc1ccc(C)c(Cn2cc([C@H]3C[C@@H]3C(=O)NCCc3ccccc3)c3ccccc32)c1 (racemic) [BC20360] | ++ (“++” >25% increase in NMNAT2 luciferase activity at >1 μM ≤25 μM.) |
| O=C1NCCc2cn(Cc3cccc(F)c3)c3cccc1c23 [BC20315] | + (“+” >25% increase in NMNAT2 luciferase activity at >25 μM.) |
| Cc1ccc(Cn2cc(C3CCN(Cc4ccccc4C)C(=O)C3)c3ccccc32)cc1 (stereo not shown) [BC20232] | + (“+” >25% increase in NMNAT2 luciferase activity at >25 μM.) |
| O=C(Cn1c2c(c3ccccc31)CN(C(=O)NCC1CCCO1)CC2)NCc1ccco1 (stereo not shown) [BC20328] | + (“+” >25% increase in NMNAT2 luciferase activity at >25 μM.) |
| Cc1cccc(CNC(=O)CCCc2cn(Cc3cccc(C)c3)c3ccccc23)c1 [BC20168] | ++ (“++” >25% increase in NMNAT2 luciferase activity at >1 μM ≤25 μM.) |
| O=C(Cn1c2c(c3ccccc31)CN(C(=O)NCc1ccco1)CC2)NCc1ccco1 [BC20327] | + (“+” >25% increase in NMNAT2 luciferase activity at >25 μM.) |
| Cc1ccc(Cn2cc(C3CCNC(=O)C3)c3ccccc32)cc1 (stereo not shown) [BC20192] | ++ (“++” >25% increase in NMNAT2 luciferase activity at >1 μM ≤25 μM.) |
